Assay results reported in patent publication US20240132431A1, “METHOD FOR ALKYLATING ACIDIC FUNCTIONAL GROUP” (Chugai Seiyaku Kabushiki Kaisha, priority 2021, published 2024).

Molecular target: T1, Bcl-2 protein (Recombinant Human Bcl-2 Protein) (Homo sapiens, UniProt P10415)
T1 construct: purchased Novus NBP2-34889
Test: Binding evaluation of mixture library compounds to Bcl-2 using AS-MS (affinity selection mass spectrometry)
Method in brief: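 ASMS Ratio (%) was calculated as (A−C)/B×100, where A is the protein sample after SEC, B the protein-free sample without SEC and C the protein-free sample after SEC. Each compound was at […] in a 1200-member pool with 20 μM Bcl-2, incubated 1 h at 23° C.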

T1 sequence (P10415 whole entry): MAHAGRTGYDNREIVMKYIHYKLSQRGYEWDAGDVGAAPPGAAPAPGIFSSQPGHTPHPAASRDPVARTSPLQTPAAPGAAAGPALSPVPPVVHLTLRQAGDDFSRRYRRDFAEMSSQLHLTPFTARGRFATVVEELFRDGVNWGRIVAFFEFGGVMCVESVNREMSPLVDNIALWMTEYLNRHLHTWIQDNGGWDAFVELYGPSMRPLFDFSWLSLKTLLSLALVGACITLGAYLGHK

| SMILES | ASMS ratio (%) (n = 1) | ASMS ratio (%) (n = 2) |
| --- | --- | --- |
| CCOc1cccc(-c2cc(CN3CCN(c4ccc(C(=O)NS(=O)(=O)CCC(F)(F)F)cc4)CC3)cc(OC(F)(F)F)c2)c1 [B2N063-01, 4-[4-[[3-(3-Ethoxyphenyl)-5-(trifluoromethoxy)phenyl]methyl]piperazin-1-yl]-N-(3,3,3-trifluoropropylsulfonyl)benzamide] | −0.3 | −3.8 |
| CCOc1cncc(-c2cc(CN3CCN(c4ccc(C(=O)NS(=O)(=O)CCC(F)(F)F)cc4)CC3)cc(OC(F)(F)F)c2)c1 [B2N064-01, 4-[4-[[3-(5-Ethoxypyridin-3-yl)-5-(trifluoromethoxy)phenyl]methyl]piperazin-1-yl]-N-(3,3,3-trifluoropropylsulfonyl)benzamide] | 0.0 | 0.0 |
| CCOc1cccc(-c2ccc(CN3CCN(c4ccc(C(=O)NS(=O)(=O)CCC(F)(F)F)cc4)CC3)c3ccccc23)c1 [B2N065-01] | 0.0 | 0.0 |
| CCOc1cncc(-c2ccc(CN3CCN(c4ccc(C(=O)NS(=O)(=O)CCC(F)(F)F)cc4)CC3)c3ccccc23)c1 [B2N066-01, 4-[4-[[4-(5-Ethoxypyridin-3-yl)naphthalen-1-yl]methyl]piperazin-1-yl]-N-(3,3,3-trifluoropropylsulfonyl)benzamide] | 0.0 | 0.0 |
| CCOc1cccc(-c2csc(CN3CCN(c4ccc(C(=O)NS(=O)(=O)CCC(F)(F)F)cc4)CC3)c2)c1 [B2N067-01, 4-[4-[[4-(3-Ethoxyphenyl)thiophen-2-yl]methyl]piperazin-1-yl]-N-(3,3,3-trifluoropropylsulfonyl)benzamide] | 0.0 | 0.0 |
| CCOc1cncc(-c2csc(CN3CCN(c4ccc(C(=O)NS(=O)(=O)CCC(F)(F)F)cc4)CC3)c2)c1 [B2N068-01] | 0.0 | 0.5 |
| CCOc1cccc(C#Cc2ccccc2CN2CCN(c3ccc(C(=O)NS(=O)(=O)CCC(F)(F)F)cc3)CC2)c1 [B2N069-01, 4-[4-[[2-[2-(3-Ethoxyphenyl)ethynyl]phenyl]methyl]piperazin-1-yl]-N-(3,3,3-trifluoropropylsulfonyl)benzamide] | −1.8 | −1.5 |
| CCOc1cncc(C#Cc2ccccc2CN2CCN(c3ccc(C(=O)NS(=O)(=O)CCC(F)(F)F)cc3)CC2)c1 [B2N070-01, 4-[4-[[2-[2-(5-Ethoxypyridin-3-yl)ethynyl]phenyl]methyl]piperazin-1-yl]-N-(3,3,3-trifluoropropylsulfonyl)benzamide] | 0.0 | 0.0 |
| CCOc1cccc(-c2ccccc2CN2CCN(c3ccc(C(=O)NS(=O)(=O)CCC(F)(F)F)nn3)CC2)c1 [B2N071-01, 6-[4-[[2-(3-Ethoxyphenyl)phenyl]methyl]piperazin-1-yl]-N-(3,3,3-trifluoropropylsulfonyl)pyridazine-3-carboxamide] | 0.0 | 0.0 |
| CCOc1cncc(-c2ccccc2CN2CCN(c3ccc(C(=O)NS(=O)(=O)CCC(F)(F)F)nn3)CC2)c1 [B2N072-01] | 0.0 | 0.1 |
| CCOc1cccc(-c2ccc(CN3CCN(c4ccc(C(=O)NS(=O)(=O)CCC(F)(F)F)nn4)CC3)cc2C)c1 [B2N073-01, 6-[4-[[4-(3-Ethoxyphenyl)-3-methylphenyl]methyl]piperazin-1-yl]-N-(3,3,3-trifluoropropylsulfonyl)pyridazine-3-carboxamide] | 0.0 | 0.0 |
| CCOc1cncc(-c2ccc(CN3CCN(c4ccc(C(=O)NS(=O)(=O)CCC(F)(F)F)nn4)CC3)cc2C)c1 [B2N074-01, 6-[4-[[4-(5-Ethoxypyridin-3-yl)-3-methylphenyl]methyl]piperazin-1-yl]-N-(3,3,3-trifluoropropylsulfonyl)pyridazine-3-carboxamide] | 0.0 | 0.0 |
| CCOc1cncc(-c2ccc(CN3CCN(c4ccc(C(=O)NS(=O)(=O)CCC(F)(F)F)nn4)CC3)c(CC)c2)c1 [B2N076-01, 6-[4-[[4-(5-Ethoxypyridin-3-yl)-2-ethylphenyl]methyl]piperazin-1-yl]-N-(3,3,3-trifluoropropylsulfonyl)pyridazine-3-carboxamide] | 0.0 | 0.0 |
| CCOc1cccc(-c2ccc(CN3CCN(c4ccc(C(=O)NS(=O)(=O)CCC(F)(F)F)nn4)CC3)cc2F)c1 [B2N077-01, 6-[4-[[4-(3-Ethoxyphenyl)-3-fluorophenyl]methyl]piperazin-1-yl]-N-(3,3,3-trifluoropropylsulfonyl)pyridazine-3-carboxamide] | 0.0 | 0.0 |
| CCOc1cncc(-c2ccc(CN3CCN(c4ccc(C(=O)NS(=O)(=O)CCC(F)(F)F)nn4)CC3)cc2F)c1 [B2N078-01, 6-[4-[[4-(5-Ethoxypyridin-3-yl)-3-fluorophenyl]methyl]piperazin-1-yl]-N-(3,3,3-trifluoropropylsulfonyl)pyridazine-3-carboxamide] | 0.0 | 0.0 |
| CCOc1cccc(-c2ccc(CN3CCN(c4ccc(C(=O)NS(=O)(=O)CCC(F)(F)F)nn4)CC3)c(OC)c2)c1 [B2N079-01] | 0.0 | 0.0 |
| CCOc1cncc(-c2ccc(CN3CCN(c4ccc(C(=O)NS(=O)(=O)CCC(F)(F)F)nn4)CC3)c(OC)c2)c1 [B2N080-01] | 0.0 | 0.0 |
| CCOc1cccc(-c2cc(CN3CCN(c4ccc(C(=O)NS(=O)(=O)CCC(F)(F)F)nn4)CC3)cc(OCC)c2)c1 [B2N081-01, 6-[4-[[3-Ethoxy-5-(3-ethoxyphenyl)phenyl]methyl]piperazin-1-yl]-N-(3,3,3-trifluoropropylsulfonyl)pyridazine-3-carboxamide] | 0.0 | 0.0 |
| CCOc1cncc(-c2cc(CN3CCN(c4ccc(C(=O)NS(=O)(=O)CCC(F)(F)F)nn4)CC3)cc(OCC)c2)c1 [B2N082-01] | 2.5 | 2.8 |
| CCOc1cccc(-c2cc(CN3CCN(c4ccc(C(=O)NS(=O)(=O)CCC(F)(F)F)nn4)CC3)cc(OC(C)C)c2)c1 [B2N083-01, 6-[4-[[3-(3-Ethoxyphenyl)-5-propan-2-yloxyphenyl]methyl]piperazin-1-yl]-N-(3,3,3-trifluoropropylsulfonyl)pyridazine-3-carboxamide] | 0.0 | 0.0 |
| CCOc1cncc(-c2cc(CN3CCN(c4ccc(C(=O)NS(=O)(=O)CCC(F)(F)F)nn4)CC3)cc(OC(C)C)c2)c1 [B2N084-01, 6-[4-[[3-(5-Ethoxypyridin-3-yl)-5-propan-2-yloxyphenyl]methyl]piperazin-1-yl]-N-(3,3,3-trifluoropropylsulfonyl)pyridazine-3-carboxamide] | 0.0 | 0.0 |
